Experimental data reported in PubChem BioAssay (NCI).
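Briefly, cells in 96-well plates were exposed to five compound concentrations for 48 h, and endpoints were estimated by linear interpolation. Definition used: TGI = concentration required for complete inhibition of growth.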

Key:
Test in all cases: DTP human tumour cell line panel, 48 h
HCC-2998 colon = tested on: HCC-2998 colon
UACC-257 melanoma = tested on: UACC-257 melanoma
K-562 leukemia = tested on: K-562 leukemia
SNB-78 CNS = tested on: SNB-78 CNS
ACHN renal = tested on: ACHN renal
LXFL 529 NSCLC = tested on: LXFL 529 NSCLC
HCT-116 colon = tested on: HCT-116 colon
HOP-92 NSCLC = tested on: HOP-92 NSCLC
DMS 273 small cell lung = tested on: DMS 273 small cell lung
RXF 393 renal = tested on: RXF 393 renal
A498 renal = tested on: A498 renal
EKVX NSCLC = tested on: EKVX NSCLC
RXF-631 renal = tested on: RXF-631 renal
SF-539 CNS = tested on: SF-539 CNS
HT29 colon = tested on: HT29 colon
SW-620 colon = tested on: SW-620 colon
OVCAR-4 ovarian = tested on: OVCAR-4 ovarian
NCI-H460 lung = tested on: NCI-H460 lung
M19-MEL melanoma = tested on: M19-MEL melanoma
HOP-62 NSCLC = tested on: HOP-62 NSCLC
SK-MEL-5 melanoma = tested on: SK-MEL-5 melanoma
HL-60(TB) leukemia = tested on: HL-60(TB) leukemia
SN12C renal = tested on: SN12C renal
MALME-3M melanoma = tested on: MALME-3M melanoma
OVCAR-8 ovarian = tested on: OVCAR-8 ovarian
SF-295 CNS = tested on: SF-295 CNS
OVCAR-3 ovarian = tested on: OVCAR-3 ovarian
COLO 205 colon = tested on: COLO 205 colon
OVCAR-5 ovarian = tested on: OVCAR-5 ovarian
RPMI-8226 leukemia = tested on: RPMI-8226 leukemia
UO-31 renal = tested on: UO-31 renal
U251 CNS = tested on: U251 CNS
SNB-19 CNS = tested on: SNB-19 CNS
KM20L2 colon = tested on: KM20L2 colon
A549 NSCLC = tested on: A549 NSCLC
HCT-15 colon = tested on: HCT-15 colon
SF-268 CNS = tested on: SF-268 CNS
UACC-62 melanoma = tested on: UACC-62 melanoma
MOLT-4 leukemia = tested on: MOLT-4 leukemia
DLD-1 colon = tested on: DLD-1 colon
786-0 renal = tested on: 786-0 renal
KM12 colon = tested on: KM12 colon
NCI-H522 lung = tested on: NCI-H522 lung
CCRF-CEM leukemia = tested on: CCRF-CEM leukemia
HOP-18 NSCLC = tested on: HOP-18 NSCLC
DMS 114 small cell lung = tested on: DMS 114 small cell lung
NCI-H23 lung = tested on: NCI-H23 lung
TK-10 renal = tested on: TK-10 renal
M14 melanoma = tested on: M14 melanoma
NCI-H226 lung = tested on: NCI-H226 lung
IGROV1 ovarian = tested on: IGROV1 ovarian
SK-MEL-2 melanoma = tested on: SK-MEL-2 melanoma
SK-OV-3 ovarian = tested on: SK-OV-3 ovarian
SK-MEL-28 melanoma = tested on: SK-MEL-28 melanoma
LOX IMVI melanoma = tested on: LOX IMVI melanoma
CAKI-1 renal = tested on: CAKI-1 renal
SNB-75 CNS = tested on: SNB-75 CNS
XF 498 CNS = tested on: XF 498 CNS

Measured: TGI

Cc1cc(Cl)ccc1NC(=O)C1C(=O)N(c2ccc(Cl)cc2C)C(=O)/C1=N\NC(N)=S (stereo not given)
41.6 µM: NCI-H23 lung
35.4 µM: HT29 colon
46.6 µM: HOP-92 NSCLC
70.6 µM: SF-539 CNS
54.1 µM: RXF 393 renal
69.7 µM: OVCAR-4 ovarian
39.6 µM: U251 CNS
51.8 µM: EKVX NSCLC | HL-60(TB) leukemia
98.5 µM: LXFL 529 NSCLC
49.7 µM: MALME-3M melanoma
44.5 µM: HCC-2998 colon
98.7 µM: DMS 114 small cell lung
72.4 µM: A498 renal
56.5 µM: CCRF-CEM leukemia
53.9 µM: OVCAR-5 ovarian
34.4 µM: HCT-15 colon | NCI-H522 lung
57.8 µM: K-562 leukemia
41.1 µM: UO-31 renal
96.3 µM: SN12C renal
86.4 µM: SF-295 CNS | UACC-62 melanoma
46.2 µM: HCT-116 colon
38 µM: MOLT-4 leukemia
48.5 µM: HOP-62 NSCLC
46.8 µM: KM20L2 colon
60.8 µM: HOP-18 NSCLC
not listed: NCI-H226 lung | IGROV1 ovarian | SK-MEL-2 melanoma | SK-OV-3 ovarian | SK-MEL-28 melanoma | LOX IMVI melanoma | CAKI-1 renal | SNB-75 CNS | XF 498 CNS
> 100 µM: all other assays above

CCCNCCCCC(NC(C)=O)C(=O)NCc1ccccc1 (stereo not given)
not listed: HL-60(TB) leukemia | HOP-18 NSCLC
> 100 µM: all other assays above
